Assay results as given in US20260265525A1, “DEVELOPMENT OF HIGHLY FLUOROGENIC STYRENE PROBES FOR VISUALIZING RNA IN LIVE CELLS” (UNIVERSITY OF SOUTHERN CALIFORNIA, priority 2023, published 2026).

What was measured:
[1] = previously reported; cited from earlier work
[2] = system: live HeLa cells; assay: Live-cell and time-resolved confocal imaging; assay type: cell-based; details: for cellular localization of fluorescence signals: live HeLa, 20 μM, 30 min; for time after addition at which nucleoli could be clearly discerned: live cells, dye in medium
Protocol: HeLa cells were cultured at a density of 7000 cells/well on chambered glass sides and incubated at 37° C. overnight or until fully adherent. After removing the medium and washing with DPBS (Thermo Fisher), the cells were incubated with dyes in PBS (Thermo Fisher) for 30 min at 37° C. with 5% CO2 on the microscope stage and analyzed directly. Fluorescence images were acquired using a confocal microscope (Leica SP8, Leica Microsystems) and analyzed using ImageJ. MPI (20 μM) was excited at 440 nm, SYTO RNASelect (0.1-1 μM, Thermo Fisher) was excited at 490 nm, 1c (10 nM-20 μM) was excited at 550 nm, and 1d (20 μM) was excited at 500 nm.
HeLa cells were cultured on eight-well chambered glass slides (iBidi μ-slides) and incubated overnight at 37° C. with 5% CO2 until totally adherent. Staining solutions for each dye were prepared in serum-free DMEM and kept warm at 37° C. The cells were monitored from 0 to 30 min, where t=0 is the time right before the addition of the dye. Images were acquired at t=0, 0.5, 1, 2, 5, 10, 15, 20, 25, and 30 min for each dye. Fluorescence images were analyzed and quantified with ImageJ.

[3] = Spectral and photophysical characterization of free dyes in T.E. buffer; assay type: physicochemical; details: for Stokes shift / molar absorptivity: T.E. buffer; for emission wavelength (maximum) / fluorescence quantum yield of free dye / maximum absorbance wavelength: free dye in T.E. buffer
Protocol: After the synthesis of the styrene dyes, their photophysical properties were evaluated. The spectral and photophysical properties (absorption, emission, molar absorptivity (ε), fluorescence quantum yield (ΦDF), and fluorescence enhancement) of probes 1a-1d were measured in DMSO and T.E. buffer (Tris-HCl, 1 mM EDTA, pH=7.5). FIG. 2D provides measurements of the fluorescent enhancement for several of the fluorescent probes.
(§1) Coumarin 6 was used as a reference dye for MPI, 1a, and 1b and Rhodamine 6G was used as a reference for 1c and 1d. Absorption spectra were collected by Shimadzu UV-1800 spectrophotometer. Samples were loaded in plastic disposable cuvette. Emission spectra were obtained by Photon Technology International QuantaMaster model C-60 Fluorimeter in 1×1 cm^2 quartz cuvettes. Fluorescence quantum yields were then calculated according to the method by Lawson-wood, Upstone, and Evans. (58) The torula yeast type IV RNA (Sigma) solution was prepared as a 200 μg/mL solution in T.E. buffer (Tris-HCl, EDTA, pH 7.6, Bioworld) without sonicating to avoid shearing of nucleic acids. All measurements were taken using samples with a final dye concentration of 10 μM.

[4] = system: PFA-fixed HeLa cells; assay: Fixed-cell imaging; assay type: cell-based; details: HeLa fixed with 4% PFA
Protocol: HeLa cells were cultured on 6-well plates containing glass coverslips and incubated at 37° C. overnight or until fully adherent. After removing the medium and washing with DPBS, the cells were fixed with 4% paraformaldehyde for 10 min at ambient temperature. After fixation, the cells were rinsed with PBS and incubated with dye solutions in PBS for 30 min at ambient temperature. After incubation, the dye solutions were removed and cells were gently washed with PBS three times. The coverslips were mounted onto glass slides, sealed, and analyzed using confocal microscopy.

[5] = system: torula yeast type IV RNA; assay: Quantum yield and fluorescence enhancement of dyes incubated with RNA; assay type: binding; details: for quantum yield in RNA solution: 10 μM dye, 200 μg/mL RNA in T.E. buffer; for fluorescence enhancement upon binding RNA: ratio of quantum yield of dye in RNA solution over free dye
Protocol: To determine the fluorescence change of 1a-1d in the presence of RNA, the dyes (10 μM) were incubated with torula yeast type IV RNA in T.E. buffer and measured the spectral and photophysical parameters as described above. Fold-enhancement values were calculated by taking the ratio of the quantum yield of dyes in RNA solution over free dyes.
as §1

[6] = system: RNA/spermine condensates; assay: Staining and FLIM imaging of RNA-spermine condensates; design: species or system torula yeast; details: 10 μM
Protocol: A 1 wt % stock solution of torula yeast RNA type IV was prepared in nuclease-free water and stored in multiple aliquots at −20° C. Final concentrations of RNA ranged from 0.02 to 0.4 wt %. A 1 wt % stock solution of spermine was prepared in deionized water and stored at 4° C. The spermine (Sigma) concentration was fixed at 0.1 wt %. Dye 1c was prepared as 10 mM stock solutions in DMSO. Condensates were prepared in a 5 mM HEPES (pH 7.4, VWR), 1 mM MgCl2 buffer. Stock solutions were added in the following order for the preparation of each sample: deionized water, HEPES, MgCl2, RNA, and spermine. Samples were mixed via gentle pipetting in between the addition of each component. RNA condensates were incubated with 10 μM 1c for 1 min at room temperature. To image the condensates, 20 μL of the incubated sample was added onto a glass coverslip and mounted onto a glass slide. Images were acquired using fluorescence confocal microscopy and FLIM.

[7] = system: DNA from calf thymus; assay: Fluorescence titration of 1c with nucleic acids or BSA; assay type: binding; details: fluorogenic response with DNA vs RNA
Protocol: Solutions of torula yeast RNA type IV (RNA mixture) and DNA from calf thymus (Sigma) were prepared and stored at 4° C. overnight. Bovine serum albumin (BSA, Thermo Fisher) and Baker's yeast RNA (rRNA, Sigma) solutions were prepared at 2 h before testing. 100 μL of 1 μM 1c were diluted by corresponding substrates solution reaching concentrations ranging from 0 to 1000 μg/mL of nucleic acids or BSA. The resulting mixtures were placed in a 96-well opaque plate. The plate with the mixture was gently shaken for 5 min before being evaluated by a microplate reader.

[8] = system: RNA mixture (torula yeast RNA type IV); assay: Comparison of fluorogenic response with SYTO RNASelect; assay type: binding; details: same RNA species
Protocol: 100 μL of 1 μM 1c and SYTO RNASelect were diluted by 100 μL solutions of RNA mixture to reach final concentrations ranging from 0 to 1000 μg/mL. The resulting mixtures were placed in a 96-well opaque plate. The plate with the mixture was gently shaken for 5 min before being evaluated by a microplate reader (SpectraMax iD5).

[9] = system: rRNA; assay: Native-PAGE gel staining; design: species or system Baker's yeast
Protocol: 1 L of 10×TBE running buffer was prepared by mixing 108 g of Tris Base, 55 g of boric acid, and 40 mL of 0.5 M EDTA (Apex). The combined solution was diluted to 1 L by filtered H2O. 14 mL of 8% Native-PAGE gel was prepared by mixing 0.7 mL of 10×TBE buffer, 0.14 mL of 10% APS buffer (Bio-Rad), and 3.73 mL of 30% acrylamide solution. The mixture was diluted to 14 mL with filtered water. 28 μL of TEMED (Sigma) was added to the mixture. The gel mixture was transferred into the casting frame placed in a precooled gel chamber. An 18-well cast was put on the top and left for polymerization for 15 min on ice. The gel chamber was filled with cold 0.5×TBE running buffer. The gel was pre-run at 150 V for 40 min. The RNA marker mixture was loaded (5 μL micro-RNA marker+0.4 μL low range marker (Bio-Rad) for one well). 5 μL of rRNA sample was loaded to reach rRNA amount as 1 and 10 μg. The RNA marker and rRNA sample loading had four repeats on the same gel. The gel was run at 150 V for 30 min. The cut gels were stained and shaken in 25 mL of 1×SYBR Gold (Thermo Fisher), 2 μM 1c, 20 μM 1c, and 40 μM 1c for 15 min. The gels were de-stained with 0.5×TBE buffer and shaken for 10 min. The buffer was removed, and the gels were imaged using an Amersham Typhoon Biomolecular […].

[10] = system: fixed HeLa cells; assay: Ribonuclease (RNase) digest experiment; assay type: cell-based; details: fixed cells treated with RNase
Protocol: HeLa cells were cultured in six-well plates with glass coverslips and incubated at 37° C. overnight to totally adherent. The cells were fixed according to the protocol described above with minor modifications. A solution of 4% paraformaldehyde+0.1% Triton-X was prepared in PBS and used to fix and permeabilize HeLa cells. The cells were incubated with this solution for 20 min at room temperature. After rinsing the cells with PBS, the cells were stained with 1 μM 1c, 1d, or SYTO in PBS for 30 min at room temperature. After removing the staining solution, 0.5 mL of RNase ([…]) and PBS (negative control) was added into each respective well and incubated for 6 h. After incubation, the medium was removed, and the cells were thoroughly washed with PBS three times. The glass coverslips were mounted onto glass slides, sealed, and analyzed using confocal microscopy.

| Molecule | Stokes shift [3] [nm] | molar absorptivity [3] [M⁻¹ cm⁻¹] | emission wavelength (maximum) [3] [nm] | fluorescence quantum yield of free dye [3] [%] | maximum absorbance wavelength [3] [nm] | fluorescence enhancement upon binding RNA [5] [fold] | absorption wavelength (reported) [1] | emission wavelength (reported) [1] | cellular localization of fluorescence signals [2] | time after addition at which nucleoli could be clearly discerned [2] [s] | localization of fluorescence signals in fixed cells [4] | quantum yield in RNA solution [5] [%] | also measured |
| --- | --- | --- | --- | --- | --- | --- | --- | --- | --- | --- | --- | --- | --- |
| C[n+]1ccc(/C=C/c2c[nH]c3ccccc23)cc1.[I-] [IN] |  |  |  |  |  |  | ~ 440 nm | ~ 540 nm |  |  |  |  |  |
| methyl pyridinium indole [MPI] |  |  |  |  |  |  | ~ 440 nm | ~ 540 nm |  |  |  |  | fluorescence quantum yield (reported) [1]: 32% |

More lines, main results first:

| Stokes shift [3] [nm] | molar absorptivity [3] [M⁻¹ cm⁻¹] | emission wavelength (maximum) [3] [nm] | fluorescence quantum yield of free dye [3] [%] | maximum absorbance wavelength [3] [nm] | fluorescence enhancement upon binding RNA [5] [fold] | Molecule | absorption wavelength (reported) [1] | emission wavelength (reported) [1] | cellular localization of fluorescence signals [2] | time after addition at which nucleoli could be clearly discerned [2] [s] | localization of fluorescence signals in fixed cells [4] | quantum yield in RNA solution [5] [%] | also measured |
| --- | --- | --- | --- | --- | --- | --- | --- | --- | --- | --- | --- | --- | --- |
| 86 | 34600 | 572 | 0.38 | 486 | 132 | C[n+]1ccc(/C=C/c2ccn3ccccc23)cc1.[I-] [Dye 1d] |  |  | primarily within the nucleoli and cytoplasm | 30 | predominantly coming from the nucleoli and cytoplasm | 50 |  |
| 142 | 24400 | 568 | 0.12 | 410 | 33 | C[n+]1ccc(/C=C/c2cc3ccccc3[nH]2)cc1.[I-] [Dye 1b] |  |  |  |  |  | 3.9 |  |
| 86 | 27500 | 596 | 0.10 | 510 | 490 | C[n+]1ccc(/C=C/c2ccc3ccccn23)cc1.[I-] [Dye 1c] |  |  | primarily within the nucleoli and cytoplasm | 30 | predominantly coming from the nucleoli and cytoplasm | 49 | lowest concentration used to resolve nucleoli [2]: 10 nM; concentration sufficient for visualizing nucleoli (dose-response study) ([2]; live HeLa cells): nanomolar concentrations; partitioning into RNA coacervates [6]: readily partitions into RNA coacervates; selectivity for RNA over DNA in vitro [7]: moderate selectivity for RNA over DNA; fluorogenic response compared with SYTO RNASelect [8]: significantly higher fluorogenic responses than SYTO™ RNASelect; sensitivity of gel staining versus SYBR Gold [9]: lower than the commercial standard, SYBR Gold; staining of RNA in PAGE-gels [9]: can stain RNA in PAGE-gels; dependence of nucleolar staining on RNA [10]: RNA-dependent |
| 162 | 20600 | 584 | 0.12 | 422 | 104 | Cn1c(/C=C/c2cc[n+](C)cc2)cc2ccccc21.[I-] [Dye 1a] |  |  |  |  |  | 9.9 |  |
